Measured values as given in patent publication USRE43327E1, “Hydrophobic polyamine analogs and methods for their use” (Aminex Therapeutics, Inc., priority 2001, dated 2012).
Like-named read-outs stand apart in the source and are kept apart here.

Experiments:
Assay type in all cases: cell-based
[1] = test system: 4 cell lines (A375, MDA-MB-231, PC-3, SK-OV-3); test: Growth inhibition with DFMO, average over 4 cell lines; details: with DFMO
Procedure: Cells were plated in 96-well plates such that they would be in log growth for the duration of the assay. The day after plating, PAs were added to the cells, and growth, if any, permitted to continue for six days in the presence of 1 mM AG and 0.5 μM SPD to insure that any growth inhibition was not the result of depletion of external polyamines in the media. At the end of the six days, cell growth was measured by MTS/PMS dye assay (Cell Titer 96 Aqueous Non-Radioactive Cell Proliferation Assay; Promega, Madison, Wis.).

[2] = test system: MDA-MB-231; test: Growth inhibition assay, PA alone, MDA-MB-231; details: PA alone (no DFMO), six days, repeat determinations, read-out: Cell Line IC50 MDA-MB-231
Procedure: (§1) Medias were obtained from Mediatech, Inc. (Herdon, Va.) and serums from Gibco BRL (Gaithersburg, Md.). 50 U/ml penicillin, 50 μg/ml streptomycin and 2 mM L-glutamine (all from Bio Whittaker, Walkersville, Md.) were included in all cultures. […] When cells were cultured with polyamines or ORI compounds, 1 mM aminoguanidine (AG; Sigma) was included to inhibit serum amine oxidase activity.

[3] = test system: PC-3; test: Growth inhibition assay, PA alone, PC-3; details: PA alone (no DFMO), six days, repeat determinations, read-out: Cell Line IC50 PC-3
Procedure: as §1

[4] = test system: MDA-MB-231; test: Growth inhibition assay (MTS/PMS) with DFMO, MDA-MB-231; details: in the presence of DFMO (1-5 mM), 1 mM AG, 0.5 μM SPD, six days; repeat determinations; read-out: Cell Line EC50 MDA-MB-231
Procedure: as §1

[5] = test system: PC-3; test: Growth inhibition assay (MTS/PMS) with DFMO, PC-3; details: in the presence of DFMO (1-5 mM), 1 mM AG, 0.5 μM SPD, six days; repeat determinations; read-out: Cell Line EC50 PC-3
Procedure: as §1

[6] = test system: A375; test: Growth inhibition assay, PA alone, A375; details: PA alone (no DFMO), six days, repeat determinations, read-out: Cell Line IC50 A375
Procedure: as §1

[7] = test system: SK-OV-3; test: Growth inhibition assay, PA alone, SK-OV-3; details: PA alone (no DFMO), six days, repeat determinations, read-out: Cell Line IC50 SK-OV-3
Procedure: as §1

[8] = test system: SK-OV-3; test: Growth inhibition assay (MTS/PMS) with DFMO, SK-OV-3; details: in the presence of DFMO (1-5 mM), 1 mM AG, 0.5 μM SPD, six days; repeat determinations; read-out: Cell Line EC50 SK-OV-3
Procedure: as §1

[9] = test system: A375; test: Growth inhibition assay (MTS/PMS) with DFMO, A375; details: in the presence of DFMO (1-5 mM), 1 mM AG, 0.5 μM SPD, six days; repeat determinations; read-out: Cell Line EC50 A375
Procedure: as §1

[10] = Table 3, average over cell lines, read-out: AVG. EC50
[11] = Homo sapiens, MDA-MB-231, 144 h
[12] = Table 2, average EC50 for 4 cell lines, read-out: Ave EC50 value
[13] = Table 1, average EC50 for 4 cell lines, read-out: Ave EC50 value

Row | SMILES | EC50 [1, 10] | IC50 [2, 11] | IC50 ([3]; Homo sapiens, PC-3, 144 h) | IC50 ([6]; Homo sapiens, A-375, 144 h) | IC50 ([7]; Homo sapiens, SK-OV-3, 144 h) | further results
1 | CC(C)(C)OC(=O)NCCCC[C@@H](N)C(=O)NCCCNCCCCNCCCN [IB41] | – | – | – | – | – | EC50 [4]: 31.9 µM; EC50 [5]: 6.73 µM
2 | NCCCNCCCCNCCCNC(=O)[C@H](N)CCCCNC(=O)c1ccco1 [IB25] | – | – | > 30 µM | > 30 µM | > 30 µM | –
3 | NCCCNCCCCNCCCNC(=O)[C@H](N)CCCCNC(=O)CC1CC2CCC1C2 (stereo partly shown) [IB37] | 35.1 µM | > 100 µM | > 100 µM | 19.8 µM | 18.3 µM | –
4 | NCCCNCCCCNCCCNC(=O)[C@@H](N)CCCCNCC12CC3CC(CC(C3)C1)C2 [VA27] | 6.45 µM | > 100 µM | > 100 µM | > 100 µM | > 100 µM | EC50 [1, 12]: 26.8 µM
5 | CCCC(=O)NCCC[C@@H](N)C(=O)NCCCNCCCCNCCCN [IB10] | 11.7 µM | > 100 µM | > 100 µM | > 100 µM | > 100 µM | EC50 [1, 13]: 12 µM
6 | CC(C)[C@@H]1CC[C@@H](C)C[C@H]1OCC(=O)NCCCC[C@@H](N)C(=O)NCCCNCCCCNCCCN [IB38] | 13.4 µM | 63.9 µM | 28 µM | 21.3 µM | 60.1 µM | –
7 | CCCCCCCCCCCCCCCCS(=O)(=O)NCCCC[C@H](NS(=O)(=O)CCCCCCCCCCCCCCCC)C(=O)NCCCNCCCCNCCCN [IIE10] | – | – | – | – | – | EC50 [4]: 0.392 µM; EC50 [5]: 0.152 µM; EC50 [8]: 0.272 µM; IC50 [2]: 24.5 µM; IC50 [3]: 14.3 µM; IC50 [7]: 20.1 µM
8 | CCCC(CCC)NCCCC[C@H](N)C(=O)NCCCNCCCCNCCCN [VA26] | 3.91 µM | > 100 µM | > 100 µM | > 100 µM | > 100 µM | –
9 | NCCCNCCCCNCCCNC(=O)[C@H](N)CCCCNC(=O)C12CC3CC(CC(C3)C1)C2 [IB30] | 1.24 µM | > 100 µM | – | – | – | IC50 [2]: 84.4 µM
10 | CCCCCC(=O)NCCCC[C@@H](N)C(=O)NCCCNCCCCNCCCN [IB9] | 11.5 µM | > 100 µM | > 100 µM | > 100 µM | > 100 µM | –
11 | CCCCCCCCCCCCCCCC(=O)NCCCC[C@H](NC(=O)CCCCCCCCCCCCCCC)C(=O)NCCCNCCCCNCCCN [IE4] | – | – | – | – | – | EC50 [4]: 0.267 µM; EC50 [5]: 0.2 µM; EC50 [8]: 0.132 µM; IC50 [2]: 17.9 µM; IC50 [3]: 21.5 µM; IC50 [7]: 7.25 µM
12 | NCCCNCCCCNCCCNC(=O)[C@@H](N)CCCCNS(=O)(=O)c1ccc(CNC(=O)c2ccc(Cl)cc2)s1 [IIA21] | – | – | – | – | – | EC50 [4]: 1.4 µM; EC50 [5]: 0.46 µM
13 | NCCCNCCCCNCCCNC(=O)[C@H](CCCCNCc1ccccc1)NCc1ccccc1 [IVE30] | – | – | – | – | – | EC50 [4]: 4.2 µM; EC50 [5]: 1.7 µM
14 | NCCCNCCCCNCCCNC(=O)[C@@H](N)CCCCNC(=O)c1ccccc1 [IA24] | – | – | – | – | – | EC50 [9]: 1.56 µM; EC50 [5]: > 30 µM; IC50 [6]: > 30 µM; IC50 [3]: > 30 µM
15 | NCCCNCCCCNCCCNC(=O)[C@H](N)CCCCNC(=O)C(c1ccccc1)c1ccccc1 [IB29] | – | > 100 µM | > 100 µM | – | > 70 µM | –
16 | CC(C)[C@@H]1CC[C@@H](C)CC1NCCCC[C@@H](N)C(=O)NCCCNCCCCNCCCN (stereo partly shown) [VB28] | 0.905 µM | > 100 µM | > 100 µM | > 100 µM | > 100 µM | IC50 [6]: 64.5 µM
17 | CC(C)C(=O)NCCCC[C@@H](N)C(=O)NCCCNCCCCNCCCN [IB33] | 8.58 µM | > 100 µM | > 100 µM | > 100 µM | > 100 µM | –
18 | CCCCCCCC(=O)NCCCC[C@@H](N)C(=O)NCCCNCCCCNCCCN [IB7] | 11.2 µM | > 30 µM | > 30 µM | > 30 µM | > 30 µM | –
19 | CC(C)(C)CNCCCC[C@H](N)C(=O)NCCCNCCCCNCCCN [VA22] | 6.98 µM | > 100 µM | > 100 µM | > 100 µM | > 100 µM | EC50 [1, 12]: 2.42 µM; IC50 [6]: 83.5 µM
20 | NCCCNCCCCNCCCNC(=O)[C@H](N)CCCCNC(=O)C(F)(F)C(F)(F)C(F)(F)F [IB39] | – | – | – | – | – | EC50 [4]: 52.5 µM; EC50 [5]: > 100 µM; EC50 [8]: > 100 µM; IC50 [2]: 4.26 µM; IC50 [3]: > 100 µM; IC50 [7]: > 100 µM
21 | CCCCCCCCCCCCCCCCCC(=O)NCCCC[C@@H](N)C(=O)NCCCNCCCCNCCCN [IB2] | 0.083 µM | > 3 µM | > 3 µM | > 3 µM | > 3 µM | –
22 | NCCCNCCCCNCCCNC(=O)[C@H](N)CCCCNC(=O)c1ccccc1 [IB24] | > 30 µM | > 30 µM | > 30 µM | > 30 µM | > 30 µM | –
23 | CC(C)CC(C)NCCCCC(N)C(=O)NCCCNCCCCNCCCN (single isomer, unassigned) [VA21] | 1.3 µM | – | > 100 µM | – | – | –
24 | CCCCCCC(=O)NCCCC[C@@H](N)C(=O)NCCCNCCCCNCCCN [IB8] | 3.55 µM | > 100 µM | > 100 µM | > 100 µM | > 100 µM | –
25 | NCCCNCCCCNCCCNC(=O)[C@H](N)CCCNC(=O)C1CCCCC1 [IB32] | – | > 100 µM | > 100 µM | > 100 µM | > 100 µM | EC50 [1, 13]: 3.6 µM
26 | CC(C)(C)C(=O)NCCCC[C@@H](N)C(=O)NCCCNCCCCNCCCN [IB34] | 8.29 µM | > 100 µM | > 100 µM | > 100 µM | > 100 µM | –
27 | CC(C)(C)CC(=O)NCCCC[C@@H](N)C(=O)NCCCNCCCCNCCCN [IB36] | 26.9 µM | > 100 µM | > 100 µM | > 100 µM | > 100 µM | –
28 | NCCCNCCCCNCCCNC(=O)[C@H](N)CCCCNC(=O)c1ccc(-c2ccccc2)cc1 [IB26] | 0.955 µM | > 100 µM | > 100 µM | – | > 100 µM | –

Further lines, with some results ahead:

Row | EC50 [1, 10] | IC50 [2, 11] | IC50 ([3]; Homo sapiens, PC-3, 144 h) | IC50 ([6]; Homo sapiens, A-375, 144 h) | IC50 ([7]; Homo sapiens, SK-OV-3, 144 h) | SMILES | further results
29 | 0.414 µM | > 100 µM | > 100 µM | – | – | NCCCNCCCCNCCCNC(=O)[C@H](N)CCCCNCC1CCCCC1 [IVB27] | –
30 | 1.52 µM | > 100 µM | > 100 µM | > 100 µM | > 100 µM | CC(C)CCNCCCC[C@@H](N)C(=O)NCCCNCCCCNCCCN [IVB21] | IC50 [6]: 71 µM
31 | 3.14 µM | > 100 µM | – | > 100 µM | > 100 µM | CC(C)(C)CNCCCC[C@@H](N)C(=O)NCCCNCCCCNCCCN [IVB24] | IC50 [6]: 84.4 µM
32 | 1.33 µM | > 100 µM | > 100 µM | > 100 µM | > 100 µM | CC(C)(C)CCNCCCC[C@@H](N)C(=O)NCCCNCCCCNCCCN [IVB22] | –
33 | 0.868 µM | > 100 µM | > 100 µM | > 100 µM | > 100 µM | CCCCCCNCCCC[C@@H](N)C(=O)NCCCNCCCCNCCCN [IVB5] | –
34 | 0.939 µM | > 100 µM | > 100 µM | – | – | NCCCNCCCCNCCCNC(=O)[C@H](N)CCCCNCC1CC2C=CC1C2 (stereo partly shown) [IVB25] | IC50 [2]: 61 µM
35 | 0.365 µM | > 100 µM | > 100 µM | > 100 µM | > 100 µM | CCCCCCCNCCCC[C@@H](N)C(=O)NCCCNCCCCNCCCN [IVB6] | –
36 | – | > 100 µM | > 100 µM | – | 72.9 µM | NCCCNCCCCNCCCNC(=O)[C@H](N)CCCCNCc1ccc(-c2ccccc2)cc1 [IVB33] | –
37 | 10.7 µM | 18.9 µM | 17.8 µM | 5.6 µM | 19.8 µM | CC(C)=CCC[C@H](C)CCNCCCC[C@@H](N)C(=O)NCCCNCCCCNCCCN [IVB28] | –
38 | 4.69 µM | – | – | – | – | NCCCNCCCCNCCCNC(=O)[C@@H](N)CCCCNCC1CCCCC1 [IVA27] | IC50 [6]: > 100 µM; IC50 [2]: > 100 µM; IC50 [3]: > 100 µM; IC50 [7]: > 100 µM
39 | 2.2 µM | > 100 µM | > 100 µM | > 100 µM | > 100 µM | CCCCNCCCC[C@@H](N)C(=O)NCCCNCCCCNCCCN [IVB3] | –
40 | 1.79 µM | > 100 µM | > 100 µM | > 100 µM | > 100 µM | CC(C)CNCCCC[C@@H](N)C(=O)NCCCNCCCCNCCCN [IVB23] | –
